This note sets out measurements from ChEMBL document CHEMBL2016455, “5-Benzothiazole substituted pyrimidine derivatives as HCV replication (replicase) inhibitors” (Bioorg Med Chem Lett, 2012).

pEC50: −log10 of the molar value.

In series [1] the test system is Hepatitis C virus. Briefly: Antiviral activity against Hepatitis C virus isolate con1 1b infected in human hepatoma cells replicon cells after 3 days by RT-PCR analysis. The class given is functional, organism-based, Hepacivirus hominis, genotype 1b Con1. (In antiviral work, replicon cells carry a viral genome segment that copies itself.)
Series [2] is described as follows: AUC (0 to 24 hrs) in rat at 2 mg/kg, iv and 10 mg/kg, po. The class given is ADME, organism-based. The note with it: plasma.
A short description of series [3]: Oral bioavailability in rat at 10 mg/kg. In kind it is ADME, organism-based. The note with it: in vivo.
A short description of series [4]: Cytotoxicity against human hepatoma cells after 3 days by MTS assay. In kind it is cell-based. On the technique in general: Tetrazolium dyes change colour on reduction, which living cells bring about.
A short description of series [5]: AUC (0 to 24 hrs) in monkey at 1 mg/kg, iv and 3 mg/kg, po. The class given is ADME, organism-based, Macaca mulatta. The following applies: rhesus monkey, plasma.
Series [6] can be described thus: Oral bioavailability in monkey at 3 mg/kg. In kind it is ADME, organism-based, Macaca mulatta. The following applies: rhesus monkey, in vivo.
The nature of series [7]: AUC (0 to 24 hrs) in dog at 1 mg/kg, iv and 3 mg/kg, po. In kind it is ADME, organism-based, Canis lupus familiaris. The following applies: plasma.
Series [8] is described as follows: Oral bioavailability in dog at 3 mg/kg. The class given is ADME, organism-based, Canis lupus familiaris. The following applies: in vivo.
The target in series [9] is Cytochrome P450 2D6 (Homo sapiens, UniProt P10635). As to the kind of experiment: Inhibition of CYP2D6. In kind it is ADME.
Sequence of Cytochrome P450 2D6 (P10635 whole entry): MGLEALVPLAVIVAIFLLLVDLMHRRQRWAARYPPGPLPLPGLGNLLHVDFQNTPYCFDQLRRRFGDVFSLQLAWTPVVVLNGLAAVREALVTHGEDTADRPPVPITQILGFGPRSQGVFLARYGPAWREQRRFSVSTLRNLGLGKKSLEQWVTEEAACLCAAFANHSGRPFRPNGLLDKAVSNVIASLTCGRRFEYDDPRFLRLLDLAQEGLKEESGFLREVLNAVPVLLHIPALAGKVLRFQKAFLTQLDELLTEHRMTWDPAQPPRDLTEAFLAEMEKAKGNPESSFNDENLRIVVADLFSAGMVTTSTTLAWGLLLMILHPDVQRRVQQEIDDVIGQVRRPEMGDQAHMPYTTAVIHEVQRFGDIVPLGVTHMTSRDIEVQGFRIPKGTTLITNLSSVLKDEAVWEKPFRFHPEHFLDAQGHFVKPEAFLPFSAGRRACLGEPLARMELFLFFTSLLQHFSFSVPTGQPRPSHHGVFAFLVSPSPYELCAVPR
Series [10] addresses Cytochrome P450 3A4 (Homo sapiens, UniProt P08684). As to the kind of experiment: Inhibition of CYP3A4. In kind it is ADME.
The target of series [11] is Cytochrome P450 2C9 (Homo sapiens, UniProt P11712). As to the kind of experiment: Inhibition of CYP2C9. The class given is ADME.
Sequence of Cytochrome P450 2C9 (P11712 whole entry): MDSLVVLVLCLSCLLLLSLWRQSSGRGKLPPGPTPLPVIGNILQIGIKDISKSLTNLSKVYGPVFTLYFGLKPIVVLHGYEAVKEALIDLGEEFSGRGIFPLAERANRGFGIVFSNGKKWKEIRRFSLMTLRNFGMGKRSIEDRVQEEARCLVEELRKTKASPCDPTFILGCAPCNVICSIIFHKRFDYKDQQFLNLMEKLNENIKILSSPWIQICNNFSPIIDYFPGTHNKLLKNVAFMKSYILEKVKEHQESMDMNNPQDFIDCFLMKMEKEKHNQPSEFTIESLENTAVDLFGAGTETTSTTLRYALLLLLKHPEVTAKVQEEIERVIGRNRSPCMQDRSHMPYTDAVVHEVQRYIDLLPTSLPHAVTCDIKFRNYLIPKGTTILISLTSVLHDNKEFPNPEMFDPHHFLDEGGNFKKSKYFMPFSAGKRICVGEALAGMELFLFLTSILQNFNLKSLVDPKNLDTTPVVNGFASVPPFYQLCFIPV
Series [12] is described as follows: Cytotoxicity against human hepatoma cells assessed as decrease in RNA level after 3 days by RT-PCR analysis. The class given is cell-based.
Series [13] can be described thus: Selectivity ratio of CC50 for human hepatoma cells to EC50 for Hepatitis C virus isolate con1 1b. The note with it: read-out: Ratio CC50/EC50. In kind it is ADME.
Series [14] is described as follows: AUC (0 to 24 hrs) in rat at 10 mg/kg, po. The class given is ADME, organism-based. On the set-up: time < 24 hr, dose 10 mg/kg, route oral. The note with it: plasma.
A short description of series [15]: Drug uptake in rat liver at 10 mg/kg, po after 4 hrs. The class given is ADME, organism-based. On the set-up: dose 10 mg/kg, route oral. The note with it: read-out: Drug uptake.

Sequence of Cytochrome P450 3A4 (P08684 whole entry): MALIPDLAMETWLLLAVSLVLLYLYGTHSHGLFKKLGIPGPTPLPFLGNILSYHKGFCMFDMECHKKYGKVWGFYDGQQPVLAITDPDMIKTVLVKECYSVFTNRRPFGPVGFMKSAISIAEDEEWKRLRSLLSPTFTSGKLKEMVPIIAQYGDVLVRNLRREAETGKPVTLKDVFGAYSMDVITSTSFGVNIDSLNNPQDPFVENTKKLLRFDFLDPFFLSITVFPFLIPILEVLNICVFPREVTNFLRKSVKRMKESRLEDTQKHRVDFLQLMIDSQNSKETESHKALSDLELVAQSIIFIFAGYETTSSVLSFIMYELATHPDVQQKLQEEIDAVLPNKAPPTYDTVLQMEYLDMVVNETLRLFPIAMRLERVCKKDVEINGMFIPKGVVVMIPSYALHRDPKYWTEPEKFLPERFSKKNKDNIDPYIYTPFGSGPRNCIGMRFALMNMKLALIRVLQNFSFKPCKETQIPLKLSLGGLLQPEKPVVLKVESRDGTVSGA

Broadly, the pEC50 is the EC50 on a negative log10 scale, so that one unit is a factor of ten. Broadly, the AUC(0-t) is exposure summed from dosing to a finite time, without extrapolation to infinity. Usually bioavailability stands for the share of a dose that reaches the circulation, judged against a reference dose that is usually intravenous. One may read the CC50 as the concentration at which the toxic effect on the cells reaches its halfway point. Consider `Cc1nc(NCC(F)(F)F)nc(N[C@@H]2C[C@H](CO)[C@@H](O)[C@H]2O)c1-c1nc2ccccc2s1.Cl`, for which the pEC50 in series [1] was 7.52. For the same molecule, the AUC(0-t) worked out at 7 µM·h in series [2], 0.3 µM·h in [5] and 7.8 µM·h in series [7]. Besides, the bioavailability in [3] was 82%; in series [6], 8%; in [8] it was 35%. For the same molecule, the half-maximal cytotoxic concentration (CC50) in series [4] (72 h) is 17 µM; in [12] (72 h), 25 µM. For the same molecule, the INH in series [9], in series [10] and in series [11] was above 20 µM each time. Also, in series [13], the selectivity ratio is above 550.
In series [1], `Cc1nc(NCC(F)(F)F)nc(N[C@@H]2C[C@H](CO)[C@@H](O)[C@H]2O)c1-c1nc2ccccc2s1` had a pEC50 of 6.10. The molecule also gave an AUC(0-t) at 24 h in [14] of 7 µM·h. Further, the concentration at 4 h in [15] came out at 8420 ng/g. Besides, the CC50 at 72 h in series [4] (human hepatoma cells) and in series [12] (human hepatoma cells) was above 25 µM each time.
